In article PMC7411887, “New Paracyclophanylthiazoles with Anti-Leukemia Activity: Design, Synthesis, Molecular Docking, and Mechanistic Studies” (Molecules, 2020):

Key:
leukemia SR = assay: MTT antiproliferative assay; conditions: Homo sapiens, read-out: Cytotoxicity IC50 L.SR
HL-60(TB) = assay: NCI single-dose screen (SRB); type: cell-based; conditions: Homo sapiens; Leukemia HL-60(TB); 10^−5 M; read-out: Growth inhibition percentage
Protocol: (§1) The methodology of the NCI anticancer screening was described in detail elsewhere (http://www.dtp.nci.nih.gov). […] Tested compounds were added to the culture at a single concentration (10^−5 M) and the cultures were incubated for 48 h. End-point determinations were made with a protein binding dye, SRB. Results for each tested compound were reported as the percentage growth of the treated cells when compared to the untreated control cells. The percentage growth was evaluated spectrophotometrically versus controls not treated with test agents. All experiments were repeated three times (Table 1).
Briefly, the protocol was performed on 60 human tumor cell lines derived from different nine neoplastic diseases. […] If the results obtained met selection criteria, then the compound was tested again on all 60 cell lines in 5× 10-fold dilutions with the top dose being 10^−4 M or 150 μg/mL. Detailed methods are described in the Supplementary Materials related to this article. […]
on their site (http://www.dtp.nci.nih.gov). But briefly, the protocol performed at sixty human […]
National Cancer Institute, Bethesda, USA. If the results obtained meet selection criteria, then the […]
10-4 molar or 150 μg/mL. Detailed methods are described in supplementary material related to […]
2. MTT- Cytotoxicity assay method […]
should not exceed 10^6 cells/cm2. Each test should include a blank containing complete medium […]
salt solution without phenol red and serum. Add reconstituted MTT in an amount equal to 10% of the culture medium volume.

CCRF-CEM = assay: NCI single-dose screen (SRB); type: cell-based; conditions: Homo sapiens; Leukemia CCRF-CEM; 10^−5 M; read-out: Growth inhibition percentage
Protocol: as §1
(§2) Briefly, the protocol was performed on 60 human tumor cell lines derived from different nine neoplastic diseases. […] If the results obtained met selection criteria, then the compound was tested again on all 60 cell lines in 5× 10-fold dilutions with the top dose being 10^−4 M or 150 μg/mL. Detailed methods are described in the Supplementary Materials related to this article.
(§3) on their site (http://www.dtp.nci.nih.gov). But briefly, the protocol performed at sixty human
(§4) National Cancer Institute, Bethesda, USA. If the results obtained meet selection criteria, then the
(§5) 10-4 molar or 150 μg/mL. […]

OVCAR-4 = assay: NCI single-dose screen (SRB); type: cell-based; conditions: Homo sapiens; Ovarian Cancer OVCAR-4; 10^−5 M; read-out: Growth inhibition percentage
Protocol: as §1, §2, §3, §4, §5

NCI-H23 = assay: NCI single-dose screen (SRB); type: cell-based; conditions: Homo sapiens; Non-Small-Cell Lung Cancer NCI-H23; 10^−5 M; read-out: Growth inhibition percentage
Protocol: as §1, §2, §3, §4, §5

NCI-H322M = assay: NCI single-dose screen (SRB); type: cell-based; conditions: Homo sapiens; Non-Small-Cell Lung Cancer NCI-H322M; 10^−5 M; read-out: Growth inhibition percentage
Protocol: as §1, §2, §3, §4, §5

NCI-H460 = assay: NCI single-dose screen (SRB); type: cell-based; conditions: Homo sapiens; Non-Small-Cell Lung Cancer NCI-H460; 10^−5 M; read-out: Growth inhibition percentage
Protocol: as §1, §2, §3, §4, §5

HT29 = assay: NCI single-dose screen (SRB); type: cell-based; conditions: Homo sapiens, HT-29; Colon Cancer HT29; 10^−5 M; read-out: Growth inhibition percentage
Protocol: as §1, §2, §3, §4, §5

BT-549 = assay: NCI single-dose screen (SRB); type: cell-based; conditions: Homo sapiens; Breast Cancer BT-549; 10^−5 M; read-out: Growth inhibition percentage
Protocol: as §1, §2, §3, §4, §5

SK-MEL-2 = assay: NCI single-dose screen (SRB); type: cell-based; conditions: Homo sapiens; Melanoma SK-MEL-2; 10^−5 M; read-out: Growth inhibition percentage
Protocol: as §1, §2, §3, §4, §5

MOLT-4 = assay: NCI single-dose screen (SRB); type: cell-based; conditions: Homo sapiens; Leukemia MOLT-4; 10^−5 M; read-out: Growth inhibition percentage
Protocol: as §1, §2, §3, §4, §5

A549/ATCC = assay: NCI single-dose screen (SRB); type: cell-based; conditions: Homo sapiens; Non-Small-Cell Lung Cancer A549/ATCC; 10^−5 M; read-out: Growth inhibition percentage
Protocol: as §1, §2, §3, §4, §5

MALME-3M = assay: NCI single-dose screen (SRB); type: cell-based; conditions: Homo sapiens; Melanoma MALME-3M; 10^−5 M; read-out: Growth inhibition percentage
Protocol: as §1, §2, §3, §4, §5

K-562 = assay: NCI single-dose screen (SRB); type: cell-based; conditions: Homo sapiens, K562; Leukemia K-562; 10^−5 M; read-out: Growth inhibition percentage
Protocol: as §1, §2, §3, §4, §5

OVCAR-3 = assay: NCI single-dose screen (SRB); type: cell-based; conditions: Homo sapiens; Ovarian Cancer OVCAR-3; 10^−5 M; read-out: Growth inhibition percentage
Protocol: as §1, §2, §3, §4, §5

HCC-2998 = assay: NCI single-dose screen (SRB); type: cell-based; conditions: Homo sapiens; Colon Cancer HCC-2998; 10^−5 M; read-out: Growth inhibition percentage
Protocol: as §1, §2, §3, §4, §5

HOP-62 = assay: NCI single-dose screen (SRB); type: cell-based; conditions: Homo sapiens; Non-Small-Cell Lung Cancer HOP-62; 10^−5 M; read-out: Growth inhibition percentage
Protocol: as §1, §2, §3, §4, §5

MCF7 = assay: NCI single-dose screen (SRB); type: cell-based; conditions: Homo sapiens; Breast Cancer MCF7; 10^−5 M; read-out: Growth inhibition percentage
Protocol: as §1, §2, §3, §4, §5

PC-3 = assay: NCI single-dose screen (SRB); type: cell-based; conditions: Homo sapiens; Prostate Cancer PC-3; 10^−5 M; read-out: Growth inhibition percentage
Protocol: as §1, §2, §3, §4, §5

SF-539 = assay: NCI single-dose screen (SRB); type: cell-based; conditions: Homo sapiens; CNS Cancer SF-539; 10^−5 M; read-out: Growth inhibition percentage
Protocol: as §1, §2, §3, §4, §5

TK-10 = assay: NCI single-dose screen (SRB); type: cell-based; conditions: Homo sapiens; Renal Cancer TK-10; 10^−5 M; read-out: Growth inhibition percentage
Protocol: as §1, §2, §3, §4, §5

T-47D = assay: NCI single-dose screen (SRB); type: cell-based; conditions: Homo sapiens, T47D; Breast Cancer T-47D; 10^−5 M; read-out: Growth inhibition percentage
Protocol: as §1, §2, §3, §4, §5

SNB-19 = assay: NCI single-dose screen (SRB); type: cell-based; conditions: Homo sapiens; CNS Cancer SNB-19; 10^−5 M; read-out: Growth inhibition percentage
Protocol: as §1, §2, §3, §4, §5

SK-MEL-5 = assay: NCI single-dose screen (SRB); type: cell-based; conditions: Homo sapiens; Melanoma SK-MEL-5; 10^−5 M; read-out: Growth inhibition percentage
Protocol: as §1, §2, §3, §4, §5

UACC-62 = assay: NCI single-dose screen (SRB); type: cell-based; conditions: Homo sapiens; Melanoma UACC-62; 10^−5 M; read-out: Growth inhibition percentage
Protocol: as §1, §2, §3, §4, §5

leukemia RPMI-8226 = assay: MTT antiproliferative assay; conditions: Homo sapiens, RPMI-8226, read-out: Cytotoxicity IC50 RPMI-8226, MTT; mean ± SD

Row | Compound | IC50 (leukemia SR) | inhibition at 10 µM (HL-60(TB)) | inhibition at 10 µM (CCRF-CEM) | inhibition at 10 µM (OVCAR-4) | inhibition at 10 µM (NCI-H23) | inhibition at 10 µM (NCI-H322M) | inhibition at 10 µM (NCI-H460) | inhibition at 10 µM (HT29) | inhibition at 10 µM (BT-549) | inhibition at 10 µM (SK-MEL-2) | inhibition at 10 µM (MOLT-4) | inhibition at 10 µM (A549/ATCC) | inhibition at 10 µM (MALME-3M) | inhibition at 10 µM (K-562) | inhibition at 10 µM (OVCAR-3) | inhibition at 10 µM (HCC-2998) | inhibition at 10 µM (HOP-62) | inhibition at 10 µM (MCF7) | inhibition at 10 µM (PC-3) | inhibition at 10 µM (SF-539) | also measured
1 | CCN1C(=O)C(=CC(=O)OC)SC1=NNC(=O)c1cc2ccc1CCc1ccc(cc1)CC2 [Compound 3e] | 5.04 ± 0.0791 µM | 11.6% | 66.1% | 10% | 0.4% | 7.75% | 0% | 54.8% | 7.73% | 5.78% | 62.9% | 3% | 8.06% | 45.8% | 7.09% | 0% | 0% | 56.3% | 43.3% | 9.82% | inhibition at 10 µM (TK-10): 6.5%; inhibition at 10 µM (T-47D): 5.77%; inhibition at 10 µM (SNB-19): 14.4%; inhibition at 10 µM (SK-MEL-5): 7.5%; inhibition at 10 µM (UACC-62): 21.4%; IC50 (leukemia RPMI-8226): 3.17 ± 0.0489 µM
2 | C=CCN1C(=O)C(=CC(=O)OC)SC1=NNC(=O)c1cc2ccc1CCc1ccc(cc1)CC2 [Compound 3d] | 22.06 ± 0.0679 µM | 8.16% | 77.1% | 2.93% | 11.8% | 2.94% | 0% | 54% | 38.3% | 2.7% | 64.5% | 5.2% | 7.56% | 48.1% | 13.6% | 0% | 0% | 48.5% | 51.6% | 0.33% | inhibition at 10 µM (TK-10): 0%; inhibition at 10 µM (T-47D): 25%; inhibition at 10 µM (SNB-19): 15.3%; inhibition at 10 µM (SK-MEL-5): 7.53%; inhibition at 10 µM (UACC-62): 22.8%; IC50 (leukemia RPMI-8226): 17.81 ± 0.0544 µM
